Laboratory results taken from patent publication US11078170B2 (Assembly Biosciences, Inc., priority 2017, dated 2021).

These molecules were tested on HBV viral production from HepAD38 cells (assay: Activity of test compounds on viral production from HepAD38 cells (viral load by qPCR of HBV core sequence in supernatant)). Conditions: Hepatitis B virus, 120 h, 5 days incubation, HBV DNA in supernatant by qPCR, top concentration 10 μM, read-out: Viral Load EC50 Activity range.
Format: cell-based
Outline: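 HepAD38 cells, 50,000/well in tetracycline-free 2% FBS medium, treated 5 days at 37° C. with compound from 10 μM top concentration. HBV DNA in supernatant quantified by TaqMan qPCR of core sequence against DNA standards, relative to DMSO wells; CellTiter-Glo viability read in parallel. EC50/CC50 from four-parameter logistic fit.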

| Compound | EC50 [nM] |
| --- | --- |
| CN1[C@H](C(=O)Nc2ccc(F)c(Cl)c2)C[C@H](c2ncc(-c3cnn(C)c3)s2)NS1(=O)=O [HBV-CSU-177-ISO-I, Cis-N-(3-Chloro-4-fluorophenyl)-2-methyl-5-(5-(1-methyl-1H-pyrazol-4-yl)thiazol-2-yl)-1,2,6-thiadiazinane-3-carboxamide 1,1-dioxide] | < 1000 |
| CCc1sc(C2CC(C(=O)Nc3ccc(F)c(Cl)c3)N(C)S(=O)(=O)N2)cc1-c1cnn(C)c1 (racemic) [HBV-CSU-305, Cis-N-(3-Chloro-4-fluorophenyl)-5-(5-ethyl-4-(1-methyl-1H-pyrazol-4-yl)thiophen-2-yl)-2-methyl-1,2,6-thiadiazinane-3-carboxamide 1,1-dioxide] | < 1000 |
| CN1C(C(=O)Nc2ccc(F)c(Cl)c2)CC(c2ccc(OCC(=O)O)cc2)NS1(=O)=O (racemic) [HBV-CSU-216, Cis-2-(4-(5-((3-Chloro-4-fluorophenyl)carbamoyl)-6-methyl-1,1-dioxido-1,2,6-thiadiazinan-3-yl)phenoxy)acetic acid] | > 5000 |
| COc1ccc(-c2cnc([C@@H]3C[C@H](C(=O)Nc4ccc(F)c(Cl)c4)N(C)S(=O)(=O)N3)s2)cc1 [HBV-CSU-250-ISO-II, Cis-N-(3-Chloro-4-fluorophenyl)-5-(5-(4-methoxyphenyl)thiazol-2-yl)-2-methyl-1,2,6-thiadiazinane-3-carboxamide 1,1-dioxide] | 1000 to 5000 |
| Cc1c(-c2csc(C3CC(C(=O)Nc4ccc(F)c(Cl)c4)N(C)S(=O)(=O)N3)c2)cnn1C (stereo not drawn) [HBV-CSU-315, Cis-N-(3-chloro-4-fluorophenyl)-5-(4-(1,5-dimethyl-1H-pyrazol-4-yl)thiophen-2-yl)-2-methyl-1,2,6-thiadiazinane-3-carboxamide 1,1-dioxide] | < 1000 |
| O=C(Nc1ccc(F)c(Cl)c1)C1CC(c2nccs2)NS(=O)(=O)N1CCOCc1ccccc1 (racemic) [HBV-CSU-095, Cis-2-(2-(benzyloxy)ethyl)-N-(3-chloro-4-fluorophenyl)-5-(thiazol-2-yl)-1,2,6-thiadiazinane-3-carboxamide 1,1-dioxide] | 1000 to 5000 |
| CN1[C@H](C(=O)Nc2ccc(F)c(C#N)c2)C[C@H](c2cccs2)NS1(=O)=O [HBV-CSU-045-ISO-I, Cis-N-(3-cyano-4-fluorophenyl)-2-methyl-5-(thiophen-2-yl)-1,2,6-thiadiazinane-3-carboxamide 1,1-dioxide] | < 1000 |
| [2H]C([2H])([2H])N1[C@@H](C(=O)Nc2ccc(F)c(Cl)c2)C[C@@H](c2ncc(-c3cn(C([2H])([2H])[2H])cn3)s2)NS1(=O)=O (relative stereo) [HBV-CSU-337-ISO-II, Cis-N-(3-Chloro-4-fluorophenyl)-2-(methyl-d3)-5-(5-(1-(methyl-d3)-1H-imidazol-4-yl)thiazol-2-yl)-1,2,6-thiadiazinane-3-carboxamide 1,1-dioxide] | 1000 to 5000 |
| CN1C(C(=O)Nc2ccc(F)c(Cl)c2)CC(c2ccc(-c3ccc(Br)c(F)c3)s2)NS1(=O)=O (stereo not drawn) [HBV-CSU-157, Cis-N-(3-chloro-4-fluorophenyl)-5-(5-(4-bromo-3-fluorophenyl)thiophen-2-yl)-2-methyl-1,2,6-thiadiazinane-3-carboxamide 1,1-dioxide] | 1000 to 5000 |
| CCOCCN1C(C(=O)Nc2ccc(F)c(Cl)c2)CC(c2nccs2)NS1(=O)=O (racemic) [HBV-CSU-142, Cis-N-(3-Chloro-4-fluorophenyl)-2-(2-ethoxyethyl)-5-(thiazol-2-yl)-1,2,6-thiadiazinane-3-carboxamide 1,1-dioxide] | < 1000 |
| CN1C(C(=O)Nc2ccc(F)c(Cl)c2)CC(c2cccc(Cl)c2)NS1(=O)=O (racemic) [HBV-CSU-261, Cis-N-(3-Chloro-4-fluorophenyl)-5-(3-chlorophenyl)-2-methyl-1,2,6-thiadiazinane-3-carboxamide 1,1-dioxide] | < 1000 |
| CN1C(C(=O)Nc2ccc(F)c(Cl)c2)CC(c2ncc(-c3cncs3)s2)NS1(=O)=O (racemic) [HBV-CSU-278, Cis-5-([5,5′-Bithiazol]-2-yl)-N-(3-chloro-4-fluorophenyl)-2-methyl-1,2,6-thiadiazinane-3-carboxamide 1,1-dioxide] | < 1000 |
| CCn1cc(-c2csc([C@H]3C[C@@H](C(=O)Nc4ccc(F)c(Cl)c4)N(C)S(=O)(=O)N3)c2)cn1 [HBV-CSU-294-ISO-I, Cis-N-(3-chloro-4-fluorophenyl)-5-(4-(1-ethyl-1H-pyrazol-4-yl)thiophen-2-yl)-2-methyl-1,2,6-thiadiazinane-3-carboxamide 1,1-dioxide] | < 1000 |
| CN1C(C(=O)Nc2ccc(F)c(Cl)c2)CC(c2ccc(-c3ccc(F)cc3)s2)NS1(=O)=O (centres unmarked) [HBV-CSU-238] | < 1000 |
| O=C(Nc1ccc(F)c(Cl)c1)[C@@H]1C[C@H](c2nccs2)NS(=O)(=O)N1CCOCc1ccccc1 [HBV-CSU-095-ISO-II, Cis-2-(2-(benzyloxy)ethyl)-N-(3-chloro-4-fluorophenyl)-5-(thiazol-2-yl)-1,2,6-thiadiazinane-3-carboxamide 1,1-dioxide] | 1000 to 5000 |
| Cc1csc([C@@H]2C[C@H](C(=O)Nc3ccc(F)c(Cl)c3)N(C)S(=O)(=O)N2)c1 [HBV-CSU-147-ISO-II, Cis-N-(3-chloro-4-fluorophenyl)-2-methyl-5-(4-methylthiophen-2-yl)-1,2,6-thiadiazinane-3-carboxamide 1,1-dioxide] | > 5000 |
| CN1[C@@H](C(=O)Nc2ccc(F)c(Cl)c2)C[C@@H](c2cc(-c3cncnc3)cs2)NS1(=O)=O [HBV-CSU-290-ISO-II, Cis-N-(3-chloro-4-fluorophenyl)-2-methyl-5-(4-(pyrimidin-5-yl)thiophen-2-yl)-1,2,6-thiadiazinane-3-carboxamide 1,1-dioxide] | 1000 to 5000 |
| CN1[C@@H](C(=O)Nc2ccc(F)c(Cl)c2)C[C@@H](c2nccs2)NS1(=O)=O [HBV-CSU-027-ISO-I, Cis-N-(3-chloro-4-fluorophenyl)-2-methyl-5-(thiazol-2-yl)-1,2,6-thiadiazinane-3-carboxamide 1,1-dioxide] | > 5000 |
| CN1[C@@H](C(=O)Nc2ccc(F)c(Cl)c2)C[C@@H](c2ccccc2)NS1(=O)=O [HBV-CSU-113-ISO-II, Cis-N-(3-chloro-4-fluorophenyl)-2-methyl-5-phenyl-1,2,6-thiadiazinane-3-carboxamide 1,1-dioxide] | > 5000 |
| CN1[C@H](C(=O)Nc2ccc(F)c(Cl)c2)C[C@H](c2cccc(-c3cnn(C)c3)c2)NS1(=O)=O [HBV-CSU-247-ISO-I, Cis-N-(3-chloro-4-fluorophenyl)-2-methyl-5-(3-(1-methyl-1H-pyrazol-4-yl)phenyl)-1,2,6-thiadiazinane-3-carboxamide 1,1-dioxide] | > 5000 |
| CN1[C@@H](C(=O)Nc2ccc(F)c(Cl)c2)C[C@@H](c2cc(-c3cccs3)cs2)NS1(=O)=O [HBV-CSU-170-ISO-II] | < 1000 |
| CSCCN1[C@@H](C(=O)Nc2ccc(F)c(Cl)c2)C[C@@H](c2nccs2)NS1(=O)=O [HBV-CSU-109-ISO-I, Cis-N-(3-Chloro-4-fluorophenyl)-2-(2-(methylthio)ethyl)-5-(thiazol-2-yl)-1,2,6-thiadiazinane-3-carboxamide 1,1-dioxide] | > 5000 |
| O=C(O)CN1C(C(=O)Nc2ccc(F)c(Cl)c2)CC(c2nccs2)NS1(=O)=O (stereo not drawn) [HBV-CSU-110, Cis-2-(3-((3-Chloro-4-fluorophenyl)carbamoyl)-1,1-dioxido-5-(thiazol-2-yl)-1,2,6-thiadiazinan-2-yl)acetic acid] | > 5000 |
